Data published in patent publication US20260184693A1, “INHIBITORS OF SOLUTE CARRIER FAMILY 6A MEMBER 19 (SLC6A19) AND METHODS OF USE THEREOF” (Maze Therapeutics, Inc., priority 2022, published 2026).

These compounds were tested against T1, human SLC6A19 (Homo sapiens, UniProt Q695T7) (assay: Example B2: 13C6,15N-isoleucine uptake, RapidFire mass spectrometry, in CHO cells with doxycycline-inducible expression of human SLC6A19 and TMEM27). Settings: read-out: SLC6A19_RapidFire Uptake Assay IC50.
T1 construct: expressed in transfected cells
T1 sequence (Q695T7 1-634): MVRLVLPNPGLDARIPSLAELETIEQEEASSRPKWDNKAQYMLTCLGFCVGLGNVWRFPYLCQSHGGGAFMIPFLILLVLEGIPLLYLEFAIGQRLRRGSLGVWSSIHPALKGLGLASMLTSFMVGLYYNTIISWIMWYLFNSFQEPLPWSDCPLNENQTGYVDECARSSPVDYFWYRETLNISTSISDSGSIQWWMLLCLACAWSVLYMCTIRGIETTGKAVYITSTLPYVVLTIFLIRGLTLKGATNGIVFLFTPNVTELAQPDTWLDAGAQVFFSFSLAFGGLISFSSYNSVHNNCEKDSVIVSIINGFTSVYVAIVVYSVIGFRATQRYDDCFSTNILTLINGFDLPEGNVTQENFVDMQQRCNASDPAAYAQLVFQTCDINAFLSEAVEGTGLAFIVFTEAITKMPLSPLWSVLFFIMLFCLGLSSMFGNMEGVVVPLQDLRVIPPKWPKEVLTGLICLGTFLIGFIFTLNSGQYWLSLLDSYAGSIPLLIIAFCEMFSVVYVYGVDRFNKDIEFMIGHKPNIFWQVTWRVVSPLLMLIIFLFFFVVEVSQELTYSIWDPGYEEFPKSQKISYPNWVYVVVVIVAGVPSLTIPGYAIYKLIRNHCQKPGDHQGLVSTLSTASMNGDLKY
T1 sequence (Q9HBJ8 15-222 partner): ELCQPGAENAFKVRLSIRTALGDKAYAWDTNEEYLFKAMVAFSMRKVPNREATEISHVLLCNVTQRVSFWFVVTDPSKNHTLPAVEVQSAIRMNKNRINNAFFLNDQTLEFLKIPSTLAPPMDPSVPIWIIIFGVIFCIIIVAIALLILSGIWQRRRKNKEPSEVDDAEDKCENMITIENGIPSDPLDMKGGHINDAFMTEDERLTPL
Type: cell-based
Summary of the method: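 Labelled isoleucine (13C6,15N; 2 mM added) was given 20 min at 37 °C, following a 20-min compound pre-treatment (10-point 2-fold series, duplicate). Cells were doxycycline-induced CHO co-expressing human SLC6A19 and TMEM27. Intracellular label was quantified by RapidFire-MS peak areas against a 13C-leucine standard.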

| IC50 | SMILES |
| --- | --- |
| 12100 nM | CN(C(=O)NCc1cc2cc(Cl)ccc2[nH]1)[C@@H]1CCCN(C(=O)C2CNC2)C1 [Compound 130, (R)-1-(1-(azetidine-3-carbonyl)piperidin-3-yl)-3-((5-chloro-1H-indol-2-yl)methyl)-1-methylurea] |
| 354 nM | CC(O)C(=O)N1CCC[C@@H](N(C)C(=O)NCc2cc3cc(Cl)ccc3[nH]2)C1 (stereo partly drawn) [Compound 12, 3-((5-chloro-1H-indol-2-yl)methyl)-1-((3R)-1-(2-hydroxypropanoyl)piperidin-3-yl)-1-methylurea] |
| 897 nM | CN(C(=O)NCc1cc2cc(Cl)ccc2[nH]1)[C@@H]1CCCN(C(=O)CCNC(N)=O)C1 [Compound 73, (R)-3-((5-chloro-1H-indol-2-yl)methyl)-1-methyl-1-(1-(3-ureidopropanoyl)piperidin-3-yl)urea] |
| 6780 nM | COc1ccc2cc(CNC(=O)N(C)[C@@H]3CCCN(C(C)=O)C3)[nH]c2c1 [Compound 162, (R)-1-(1-acetylpiperidin-3-yl)-3-((6-methoxy-1H-indol-2-yl)methyl)-1-methylurea] |
| 1340 nM | CN(C(=O)NCc1cc2cc(Cl)ccc2[nH]1)[C@@H]1CCCN(C(=O)C2(O)CCCC2)C1 [Compound 97, (R)-3-((5-chloro-1H-indol-2-yl)methyl)-1-(1-(1-hydroxycyclopentane-1-carbonyl)piperidin-3-yl)-1-methylurea] |
| 6390 nM | CCS(=O)(=O)CC(=O)N1CCC[C@@H](N(C)C(=O)NCc2cc3cc(Cl)ccc3[nH]2)C1 [Compound 71, (R)-3-((5-chloro-1H-indol-2-yl)methyl)-1-(1-(2-(ethylsulfonyl)acetyl)piperidin-3-yl)-1-methylurea] |
| 973 nM | Cc1noc(CC(=O)N2CCC[C@@H](N(C)C(=O)NCc3cc4cc(Cl)ccc4[nH]3)C2)n1 [Compound 65, (R)-3-((5-chloro-1H-indol-2-yl)methyl)-1-methyl-1-(1-(2-(3-methyl-1,2,4-oxadiazol-5-yl)acetyl)piperidin-3-yl)urea] |
| 427 nM | CN(C(=O)NCc1cc2cc(Cl)ccc2[nH]1)[C@@H]1CCCN(C(=O)C23CC(C2)C3)C1 [Compound 123, (R)-1-(1-(bicyclo[1.1.1]pentane-1-carbonyl)piperidin-3-yl)-3-((5-chloro-1H-indol-2-yl)methyl)-1-methylurea] |
| 1670 nM | COc1ncc(C(=O)N2CCC[C@@H](N(C)C(=O)NCc3cc4cc(Cl)ccc4[nH]3)C2)cc1F [Compound 87, (R)-3-((5-chloro-1H-indol-2-yl)methyl)-1-(1-(5-fluoro-6-methoxynicotinoyl)piperidin-3-yl)-1-methylurea] |
| 1000 nM | CN(C(=O)NCc1cc2cc(Cl)ccc2[nH]1)[C@@H]1CCCN(C(=O)c2ccn3ccnc3c2)C1 [Compound 76, (R)-3-((5-chloro-1H-indol-2-yl)methyl)-1-(1-(imidazo[1,2-a]pyridine-7-carbonyl)piperidin-3-yl)-1-methylurea] |
| 529 nM | CN(C(=O)NCc1cc2cc(Cl)ccc2[nH]1)[C@@H]1CCCN(C(=O)Cc2ccn[nH]2)C1 [Compound 59, (R)-1-(1-(2-(1H-pyrazol-5-yl)acetyl)piperidin-3-yl)-3-((5-chloro-1H-indol-2-yl)methyl)-1-methylurea] |
| 176 nM | CN(C(=O)NCc1cc2cc(Cl)ccc2[nH]1)[C@@H]1CCCN(C(=O)C2CCCC2)C1 [Compound 84, (R)-3-((5-chloro-1H-indol-2-yl)methyl)-1-(1-(cyclopentanecarbonyl)piperidin-3-yl)-1-methylurea] |
| 1570 nM | CNc1cc(Cl)cc2cc(CNC(=O)N(C)[C@@H]3CCCN(C(C)=O)C3)[nH]c12 [Compound 178, (R)-1-(1-acetylpiperidin-3-yl)-3-((5-chloro-7-(methylamino)-1H-indol-2-yl)methyl)-1-methylurea] |
| 97.8 nM | CCN(C(=O)NCc1cc2cc(F)c(F)cc2[nH]1)[C@@H]1CCCN(C(C)=O)C1 [Compound 169, (R)-1-(1-acetylpiperidin-3-yl)-3-((5,6-difluoro-1H-indol-2-yl)methyl)-1-ethylurea] |
| 8560 nM | CN(C(=O)NCc1cc2cc(Cl)ccc2[nH]1)[C@@H]1CCCN(C(=O)C(O)CO)C1 (stereo partly drawn) [Compound 110, 3-((5-chloro-1H-indol-2-yl)methyl)-1-((3R)-1-(2,3-dihydroxypropanoyl)piperidin-3-yl)-1-methylurea] |
| 821 nM | Cc1ncoc1C(=O)N1CCC[C@@H](N(C)C(=O)NCc2cc3cc(Cl)ccc3[nH]2)C1 [Compound 27, (R)-3-((5-chloro-1H-indol-2-yl)methyl)-1-methyl-1-(1-(4-methyloxazole-5-carbonyl)piperidin-3-yl)urea] |
| 2930 nM | CC(=O)N1CCC[C@@H](N(C)C(=O)NCc2cc3cc(Cl)c(C#N)cc3[nH]2)C1 [Compound 182, (R)-1-(1-acetylpiperidin-3-yl)-3-((5-chloro-6-cyano-1H-indol-2-yl)methyl)-1-methylurea] |
| 1770 nM | CN(C(=O)NCc1cc2cc(Cl)ccc2[nH]1)[C@@H]1CCCN(C(=O)CC2CCCCO2)C1 (stereo partly drawn) [Compound 106, 3-((5-chloro-1H-indol-2-yl)methyl)-1-methyl-1-((3R)-1-(2-(tetrahydro-2H-pyran-2-yl)acetyl)piperidin-3-yl)urea] |
| 5600 nM | C[C@@H](O)C(=O)N1CCC[C@@H](N(C)C(=O)NCc2cc3cc(Cl)ccc3[nH]2)C1 [Compound 186, 3-((5-chloro-1H-indol-2-yl)methyl)-1-((R)-1-((R)-2-hydroxypropanoyl)piperidin-3-yl)-1-methylurea] |
| 651 nM | CC(=O)N1CCC[C@@H](N(C)C(=O)NCc2cc3[nH]cc(C)c3cc2F)C1 [Compound 168, (R)-1-(1-acetylpiperidin-3-yl)-3-((5-fluoro-3-methyl-1H-indol-6-yl)methyl)-1-methylurea] |
| 4400 nM | CC(=O)N1CCC(C(=O)N2CCC[C@@H](N(C)C(=O)NCc3cc4cc(Cl)ccc4[nH]3)C2)C1 (stereo partly drawn) [Compound 185, 1-((3R)-1-(1-acetylpyrrolidine-3-carbonyl)piperidin-3-yl)-3-((5-chloro-1H-indol-2-yl)methyl)-1-methylurea] |
| 1080 nM | CC(=O)NCCC(=O)N1CCC[C@@H](N(C)C(=O)NCc2cc3cc(Cl)ccc3[nH]2)C1 [Compound 89, (R)-N-(3-(3-(3-((5-chloro-1H-indol-2-yl)methyl)-1-methylureido)piperidin-1-yl)-3-oxopropyl)acetamide] |
| 887 nM | CN(C(=O)NCc1cc2cc(Cl)ccc2[nH]1)[C@@H]1CCCN(C(=O)Cc2cccnc2)C1 [Compound 67, (R)-3-((5-chloro-1H-indol-2-yl)methyl)-1-methyl-1-(1-(2-(pyridin-3-yl)acetyl)piperidin-3-yl)urea] |
| 1550 nM | CN(C(=O)NCc1cc2cc(Cl)ccc2[nH]1)[C@@H]1CCCN(C(=O)C2(C)CC2)C1 [Compound 45, (R)-3-((5-chloro-1H-indol-2-yl)methyl)-1-methyl-1-(1-(1-methylcyclopropane-1-carbonyl)piperidin-3-yl)urea] |
| 1630 nM | CC(=O)NCC(=O)N1CCC[C@@H](N(C)C(=O)NCc2cc3cc(Cl)ccc3[nH]2)C1 [Compound 53, (R)-N-(2-(3-(3-((5-chloro-1H-indol-2-yl)methyl)-1-methylureido)piperidin-1-yl)-2-oxoethyl)acetamide] |
| 4770 nM | CN(C(=O)NCc1cc2cc(Cl)ccc2[nH]1)[C@@H]1CCCN(C(=O)C(C)(O)C(F)(F)F)C1 (stereo partly drawn) [Compound 50, 3-((5-chloro-1H-indol-2-yl)methyl)-1-methyl-1-((3R)-1-(3,3,3-trifluoro-2-hydroxy-2-methylpropanoyl)piperidin-3-yl)urea] |
| 19600 nM | CN(C(=O)NCc1cc2cc(Cl)ccc2[nH]1)[C@@H]1CCCN(C(=O)c2ncc[nH]c2=O)C1 [Compound 37, (R)-3-((5-chloro-1H-indol-2-yl)methyl)-1-methyl-1-(1-(3-oxo-3,4-dihydropyrazine-2-carbonyl)piperidin-3-yl)urea] |
| 1810 nM | CCNC(=O)NC(C)C(=O)N1CCC[C@@H](N(C)C(=O)NCc2cc3cc(Cl)ccc3[nH]2)C1 (stereo partly drawn) [Compound 109, 3-((5-chloro-1H-indol-2-yl)methyl)-1-((3R)-1-((ethylcarbamoyl)alanyl)piperidin-3-yl)-1-methylurea] |
| 2540 nM | CN(C(=O)NCc1cc2cc(Cl)ccc2[nH]1)[C@@H]1CCCN(C(=O)c2cccn3cnnc23)C1 [Compound 74, (R)-1-(1-([1,2,4]triazolo[4,3-a]pyridine-8-carbonyl)piperidin-3-yl)-3-((5-chloro-1H-indol-2-yl)methyl)-1-methylurea] |
| 417 nM | CN(C(=O)NCc1cc2cc(Cl)ccc2[nH]1)[C@@H]1CCCN(C(=O)Cc2ccccn2)C1 [Compound 68, (R)-3-((5-chloro-1H-indol-2-yl)methyl)-1-methyl-1-(1-(2-(pyridin-2-yl)acetyl)piperidin-3-yl)urea] |
